Laboratory results as given in US10774064B2 (Cadent Therapeutics, Inc., priority 2016, dated 2020).

Target: T1, small-conductance Ca2+-activated K+ channels (SK channels, subtype 2) (Homo sapiens, UniProt Q9H2S1)
T1 construct: expressed in transfected cells; host or cells: HEK293
Assay: whole-cell patch-clamp of ionic current through SK2 channels in HEK293 cells (SC100)
Assay type: cell-based
Conditions: concentration that increases the basal current by 100%; HEK293 cells expressing SK2 channels
Protocol: The biological activity was determined as follows. The ionic current through small-conductance Ca^2+-activated K^+ channels (SK channels, subtype 2) was measured using the whole-cell configuration of the patch-clamp technique in a patch-clamp set-up using HEK293 tissue culture cells expressing SK2 channels as described in Hougaard et al., British Journal of Pharmacology 151, 655-665, May 8, 2007, the entire teachings of which are incorporated herein by reference. In one aspect, a compound is defined to be an SK PAM if the compound increases current in this assay, for example, if the SC100 value of the compound is less than or equal to 10 μM as determined by this assay. The SC100 value is defined to be the concentration of compound that increases the basal current by 100%.

Row | Structure (SMILES) | SC100
1 | Cc1cc(C)n(-c2nc(NC3CCC(F)(F)C3)cc(C(F)F)n2)n1 (stereo not drawn) [Compound 168, N-(3,3-difluorocyclopentyl)-6-(difluoromethyl)-2-(3,5-dimethyl-1H-pyrazol-1-yl)pyrimidin-4-amine] | + (+ means >1 uM)
2 | Cc1cc(C)n(-c2nc(NC3CCCC(F)(F)C3)cc(C(C)(C)O)n2)n1 (stereo not drawn) [Compound 356, 2-(6-((3,3-difluorocyclohexyl)amino)-2-(3,5-dimethyl-1H-pyrazol-1-yl)pyrimidin-4-yl)propan-2-ol] | + (+ means >1 uM)
3 | FCc1ccn(-c2nc(NC3CCC(F)(F)CC3)cc(OC3CC(F)(F)C3)n2)n1 [Compound 347, 6-(3,3-difluorocyclobutoxy)-N-(4,4-difluorocyclohexyl)-2-(3-(fluoromethyl)-1H-pyrazol-1-yl)pyrimidin-4-amine] | ++ (++ means 200 nM-1000 nM)
4 | Cc1cc(C)n(-c2cc(NC(C)c3nccs3)cc(NC3CCC(F)(F)CC3)n2)n1 (stereo not drawn) [Compound 255, N2-(4,4-difluorocyclohexyl)-6-(3,5-dimethyl-1H-pyrazol-1-yl)-N4-(1-(thiazol-2-yl)ethyl)pyridine-2,4-diamine] | + (+ means >1 uM)
5 | Cc1cc(C)n(-c2cc3c(ncn3C)c(NC3CCC(F)(F)CC3)n2)n1 [Compound 266, N-(4,4-difluorocyclohexyl)-6-(3,5-dimethyl-1H-pyrazol-1-yl)-1-methyl-1H-imidazo[4,5-c]pyridin-4-amine] | ++ (++ means 200 nM-1000 nM)
6 | Cc1cc(NC2CCC(F)(F)CC2)nc(-c2nc(C(F)(F)F)cs2)n1 [Compound 269, N-(4,4-difluorocyclohexyl)-6-methyl-2-(4-(trifluoromethyl)thiazol-2-yl)pyrimidin-4-amine] | + (+ means >1 uM)

More lines, now with the values ahead:

Row | SC100 | Structure (SMILES)
7 | + (+ means >1 uM) | Cc1nc(-c2cc(NC3CCC(F)(F)CC3)nc(-n3ccc(CF)n3)n2)no1 [Compound 334, N-(4,4-difluorocyclohexyl)-2-(3-(fluoromethyl)-1H-pyrazol-1-yl)-6-(5-methyl-1,2,4-oxadiazol-3-yl)pyrimidin-4-amine]
8 | ++ (++ means 200 nM-1000 nM) | CC(C)(C)C(=O)N1CC(Oc2cc(NC3CCC(F)(F)CC3)nc(-n3ccc(C(F)F)n3)n2)C1 [Compound 298, 1-(3-((6-((4,4-difluorocyclohexyl)amino)-2-(3-(difluoromethyl)-1H-pyrazol-1-yl)pyrimidin-4-yl)oxy)azetidin-1-yl)-2,2-dimethylpropan-1-one]
9 | + (+ means >1 uM) | Cc1cc(C)n(-c2nc(CN3CCN(C)CC3)cc(NC3CCC(F)(F)CC3)n2)n1 [Compound 178, N-(4,4-difluorocyclohexyl)-2-(3,5-dimethyl-1H-pyrazol-1-yl)-6-((4-methylpiperazin-1-yl)methyl)pyrimidin-4-amine]
10 | + (+ means >1 uM) | Cc1cc(C)n(-c2nc(NC3CCC(F)(F)CC3)cc(N[C@@H]3CCN(C)C3=O)n2)n1 [Compound 129, (−)-3-((6-((4,4-difluorocyclohexyl)amino)-2-(3,5-dimethyl-1H-pyrazol-1-yl)pyrimidin-4-yl)amino)-1-methylpyrrolidin-2-one]
11 | + (+ means >1 uM) | COC(=O)N1CCC1COc1cc(NC2CCC(F)(F)CC2)nc(-n2ccc(CF)n2)n1 (stereo not drawn) [Compound 306, methyl 2-(((6-((4,4-difluorocyclohexyl)amino)-2-(3-(fluoromethyl)-1H-pyrazol-1-yl)pyrimidin-4-yl)oxy)methyl)azetidine-1-carboxylate]
12 | ++ (++ means 200 nM-1000 nM) | FC1(F)CCC(Nc2cc(N3CCOCC3)nc(-n3ccc(C4CC4)n3)n2)CC1 [Compound 365, 2-(3-cyclopropyl-1H-pyrazol-1-yl)-N-(4,4-difluorocyclohexyl)-6-morpholinopyrimidin-4-amine]
13 | ++ (++ means 200 nM-1000 nM) | Cc1cc(C)n(-c2nc(NC3CCC(F)(F)CC3)cc(N3CCOC(C)C3)n2)n1 (stereo not drawn) [Compound 188, N-(4,4-difluorocyclohexyl)-2-(3,5-dimethyl-1H-pyrazol-1-yl)-6-(2-methylmorpholino)pyrimidin-4-amine]
14 | + (+ means >1 uM) | CC(O)c1csc(-c2nc(NC3CCC(F)(F)CC3)cc(N3CCOCC3)n2)n1 (stereo not drawn) [Compound 340, 1-(2-(4-((4,4-difluorocyclohexyl)amino)-6-morpholinopyrimidin-2-yl)thiazol-4-yl)ethan-1-ol]
15 | + (+ means >1 uM) | Cc1cc(NC2CCC(F)(F)CC2)nc(-c2nc(C3CC3)cs2)n1 [Compound 267, 2-(4-cyclopropylthiazol-2-yl)-N-(4,4-difluorocyclohexyl)-6-methylpyrimidin-4-amine]
16 | ++ (++ means 200 nM-1000 nM) | CCc1cc(NC2CCC(F)(F)CC2)nc(-n2nc(C)cc2C)n1 [Compound 171, N-(4,4-difluorocyclohexyl)-2-(3,5-dimethyl-1H-pyrazol-1-yl)-6-ethylpyrimidin-4-amine]
17 | ++ (++ means 200 nM-1000 nM) | COc1cc(NC2CCC(F)(F)CC2)nc(-n2nc(C)cc2C)n1 [Compound 360, N-(4,4-difluorocyclohexyl)-2-(3,5-dimethyl-1H-pyrazol-1-yl)-6-methoxypyrimidin-4-amine]
18 | + (+ means >1 uM) | CC1NC(c2cc(NC3CCC(F)(F)CC3)nc(-n3ccc(CF)n3)n2)=NO1 (stereo not drawn) [Compound 331, N-(4,4-difluorocyclohexyl)-2-(3-(fluoromethyl)-1H-pyrazol-1-yl)-6-(5-methyl-4,5-dihydro-1,2,4-oxadiazol-3-yl)pyrimidin-4-amine]

Same assay, conditions: whole-cell patch-clamp, HEK293 cells expressing SK2 channels; concentration that increases the basal current by 100%

Row | Structure (SMILES) | SC100 (μM)
19 | CNc1cc(NC2CCC(F)(F)CC2)nc(-c2nc(C)cs2)c1 [IN11063-096-P1, N2-(4,4-difluorocyclohexyl)-N4-methyl-6-(4-methylthiazol-2-yl)pyridine-2,4-diamine] | ++ (++ means 200 nM-1000 nM)
20 | COc1cc(NC2CCC(C)(C)CC2)nc(-c2nc(C)cs2)n1 [IN11055-069-P1, N-(4,4-dimethylcyclohexyl)-6-methoxy-2-(4-methylthiazol-2-yl)pyrimidin-4-amine] | ++ (++ means 200 nM-1000 nM)
21 | COC(C)c1cc(-c2nc(C)cs2)nc(NC2CCC(F)(F)CC2)n1 (stereo not drawn) [NSSy6697, N-(4,4-difluorocyclohexyl)-4-(1-methoxyethyl)-6-(4-methylthiazol-2-yl)pyrimidin-2-amine] | + (+ means >1 uM)
22 | COCc1cc(-c2nc(C)cs2)nc(NC2CCC(F)(F)CC2)n1 [NSSy6711, N-(4,4-difluorocyclohexyl)-4-(methoxymethyl)-6-(4-methylthiazol-2-yl)pyrimidin-2-amine] | ++ (++ means 200 nM-1000 nM)
23 | Cc1ccn(-c2nc(C(C)O)cc(N3CCCC4CCCCC43)n2)n1 (stereo not drawn) [IN10881-054-P1] | + (+ means >1 uM)
24 | Cc1csc(-c2cc(N3CCN4C(=O)OC[C@H]4C3)cc(NC3CCC(F)(F)CC3)n2)n1 [NSSy5838] | +++ (+++ means <200 nM)
25 | Cc1ccn(-c2cc(COc3ncccc3C(C)O)cc(NC3CCC(F)(F)CC3)n2)n1 (stereo not drawn) [IN11039-066-P1] | +++ (+++ means <200 nM)
26 | Cc1ccn(-c2cc(C(O)Cc3cnn(C)n3)cc(NC3CCC(F)(F)CC3)n2)n1 (stereo not drawn) [NSSy7064] | ++ (++ means 200 nM-1000 nM)
27 | Cc1csc(-c2cc(NC3CCC(F)(F)CC3)cc(C(C)O)c2)n1 (stereo not drawn) [IN11104-077-P1, 1-(3-((4,4-difluorocyclohexyl)amino)-5-(4-methylthiazol-2-yl)phenyl) ethan-1-ol] | + (+ means >1 uM)
28 | Cc1csc(-c2nc(O)cc(NC3CCC(F)(F)CC3)n2)n1 [NSSy6082, 6-((4,4-difluorocyclohexyl)amino)-2-(4-methylthiazol-2-yl)pyrimidin-4-ol] | + (+ means >1 uM)
29 | Cc1ccn(-c2cc(COc3ccc(F)cn3)cc(NC3CCC(F)(F)CC3)n2)n1 [NSSy5996] | ++ (++ means 200 nM-1000 nM)

Second part, the compound after the results:

Row | SC100 (μM) | Structure (SMILES)
30 | + (+ means >1 uM) | Cc1cc(NC2CCC(F)(F)CC2)nc(-n2ccc(-c3ccccc3)n2)n1 [NSSy7028]
31 | + (+ means >1 uM) | CC(=O)c1cc(N2CCOCC2)cc(NC2CCC(F)(F)CC2)n1 [IN11104-090-P1, 1-(6-((4,4-difluorocyclohexyl)amino)-4-morpholinopyridin-2-yl) ethan-1-one]
32 | ++ (++ means 200 nM-1000 nM) | Cc1csc(-c2nc(NC3CCC(F)(F)CC3)cc(C3CCC3)n2)n1 [IN11054-081-P1, 6-cyclobutyl-N-(4,4-difluorocyclohexyl)-2-(4-methylthiazol-2-yl)pyrimidin-4-amine]
33 | ++ (++ means 200 nM-1000 nM) | Cc1ccn(-c2cc(N3CCNCC3)nc(NC3CCC(F)(F)CC3)n2)n1 [NSSy6679]
34 | + (+ means >1 uM) | COc1cc(C)n(-c2nc(NC3CCC(F)(F)CC3)cc(N3CCOCC3)n2)n1 [IN11217-088-P1]
35 | ++ (++ means 200 nM-1000 nM) | FC1(F)CCC(Nc2cc(C3CC3)nc(-n3ccc(C4CC4)n3)n2)CC1 [IN11166-036-P1, 6-cyclopropyl-2-(3-cyclopropyl-1H-pyrazol-1-yl)-N-(4,4-difluorocyclohexyl)pyrimidin-4-amine]
36 | + (+ means >1 uM) | Cc1ccn(-c2nc(N[C@@H]3CCCC[C@H]3F)cc(N3CCOCC3)n2)n1 [IN11133-031-P1]
37 | + (+ means >1 uM) | N#CCc1ccn(-c2nc(NC3CCC(F)(F)CC3)cc(N3CC4(COC4)C3)n2)n1 [NSSy5848]
38 | + (+ means >1 uM) | Cc1ccn(-c2nc(NC3CCC(F)(F)CC3)cc(C(O)c3ccccc3)n2)n1 (stereo not drawn) [IN10987-039-P1]
39 | ++ (++ means 200 nM-1000 nM) | Cc1ccn(-c2cc([C@H](O)c3ncco3)cc(NC3CCC(F)(F)CC3)n2)n1 [NSSy6416]
